Here are results for 15 compounds from patent US10479784B2, “Substituted pyrazin-2-amines as inhibitors of ATR kinase” (Vertex Pharmaceuticals Incorporated, priority 2008, dated 2019).

For this assay, the target named is full-length ATR (Homo sapiens (Human), UniProt Q13535). Kind of assay: ATR Inhibition Assay (radioactive-phosphate incorporation). It is filed as biochemical. Particulars: read-out: ATR Ki. In outline: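 Ki(app) was derived by non-linear regression of background-corrected initial rates of 33P incorporation into an 800 μM target peptide, read by phosphocellulose filter scintillation counting. Reaction conditions: 5 nM full-length ATR, 10 μM [γ-33P]ATP, pH 7.5 Tris buffer with MgCl2 and DTT, 25 °C, 10-min preincubation, 24 h run.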
Sequence of full-length ATR (Q13535 whole entry): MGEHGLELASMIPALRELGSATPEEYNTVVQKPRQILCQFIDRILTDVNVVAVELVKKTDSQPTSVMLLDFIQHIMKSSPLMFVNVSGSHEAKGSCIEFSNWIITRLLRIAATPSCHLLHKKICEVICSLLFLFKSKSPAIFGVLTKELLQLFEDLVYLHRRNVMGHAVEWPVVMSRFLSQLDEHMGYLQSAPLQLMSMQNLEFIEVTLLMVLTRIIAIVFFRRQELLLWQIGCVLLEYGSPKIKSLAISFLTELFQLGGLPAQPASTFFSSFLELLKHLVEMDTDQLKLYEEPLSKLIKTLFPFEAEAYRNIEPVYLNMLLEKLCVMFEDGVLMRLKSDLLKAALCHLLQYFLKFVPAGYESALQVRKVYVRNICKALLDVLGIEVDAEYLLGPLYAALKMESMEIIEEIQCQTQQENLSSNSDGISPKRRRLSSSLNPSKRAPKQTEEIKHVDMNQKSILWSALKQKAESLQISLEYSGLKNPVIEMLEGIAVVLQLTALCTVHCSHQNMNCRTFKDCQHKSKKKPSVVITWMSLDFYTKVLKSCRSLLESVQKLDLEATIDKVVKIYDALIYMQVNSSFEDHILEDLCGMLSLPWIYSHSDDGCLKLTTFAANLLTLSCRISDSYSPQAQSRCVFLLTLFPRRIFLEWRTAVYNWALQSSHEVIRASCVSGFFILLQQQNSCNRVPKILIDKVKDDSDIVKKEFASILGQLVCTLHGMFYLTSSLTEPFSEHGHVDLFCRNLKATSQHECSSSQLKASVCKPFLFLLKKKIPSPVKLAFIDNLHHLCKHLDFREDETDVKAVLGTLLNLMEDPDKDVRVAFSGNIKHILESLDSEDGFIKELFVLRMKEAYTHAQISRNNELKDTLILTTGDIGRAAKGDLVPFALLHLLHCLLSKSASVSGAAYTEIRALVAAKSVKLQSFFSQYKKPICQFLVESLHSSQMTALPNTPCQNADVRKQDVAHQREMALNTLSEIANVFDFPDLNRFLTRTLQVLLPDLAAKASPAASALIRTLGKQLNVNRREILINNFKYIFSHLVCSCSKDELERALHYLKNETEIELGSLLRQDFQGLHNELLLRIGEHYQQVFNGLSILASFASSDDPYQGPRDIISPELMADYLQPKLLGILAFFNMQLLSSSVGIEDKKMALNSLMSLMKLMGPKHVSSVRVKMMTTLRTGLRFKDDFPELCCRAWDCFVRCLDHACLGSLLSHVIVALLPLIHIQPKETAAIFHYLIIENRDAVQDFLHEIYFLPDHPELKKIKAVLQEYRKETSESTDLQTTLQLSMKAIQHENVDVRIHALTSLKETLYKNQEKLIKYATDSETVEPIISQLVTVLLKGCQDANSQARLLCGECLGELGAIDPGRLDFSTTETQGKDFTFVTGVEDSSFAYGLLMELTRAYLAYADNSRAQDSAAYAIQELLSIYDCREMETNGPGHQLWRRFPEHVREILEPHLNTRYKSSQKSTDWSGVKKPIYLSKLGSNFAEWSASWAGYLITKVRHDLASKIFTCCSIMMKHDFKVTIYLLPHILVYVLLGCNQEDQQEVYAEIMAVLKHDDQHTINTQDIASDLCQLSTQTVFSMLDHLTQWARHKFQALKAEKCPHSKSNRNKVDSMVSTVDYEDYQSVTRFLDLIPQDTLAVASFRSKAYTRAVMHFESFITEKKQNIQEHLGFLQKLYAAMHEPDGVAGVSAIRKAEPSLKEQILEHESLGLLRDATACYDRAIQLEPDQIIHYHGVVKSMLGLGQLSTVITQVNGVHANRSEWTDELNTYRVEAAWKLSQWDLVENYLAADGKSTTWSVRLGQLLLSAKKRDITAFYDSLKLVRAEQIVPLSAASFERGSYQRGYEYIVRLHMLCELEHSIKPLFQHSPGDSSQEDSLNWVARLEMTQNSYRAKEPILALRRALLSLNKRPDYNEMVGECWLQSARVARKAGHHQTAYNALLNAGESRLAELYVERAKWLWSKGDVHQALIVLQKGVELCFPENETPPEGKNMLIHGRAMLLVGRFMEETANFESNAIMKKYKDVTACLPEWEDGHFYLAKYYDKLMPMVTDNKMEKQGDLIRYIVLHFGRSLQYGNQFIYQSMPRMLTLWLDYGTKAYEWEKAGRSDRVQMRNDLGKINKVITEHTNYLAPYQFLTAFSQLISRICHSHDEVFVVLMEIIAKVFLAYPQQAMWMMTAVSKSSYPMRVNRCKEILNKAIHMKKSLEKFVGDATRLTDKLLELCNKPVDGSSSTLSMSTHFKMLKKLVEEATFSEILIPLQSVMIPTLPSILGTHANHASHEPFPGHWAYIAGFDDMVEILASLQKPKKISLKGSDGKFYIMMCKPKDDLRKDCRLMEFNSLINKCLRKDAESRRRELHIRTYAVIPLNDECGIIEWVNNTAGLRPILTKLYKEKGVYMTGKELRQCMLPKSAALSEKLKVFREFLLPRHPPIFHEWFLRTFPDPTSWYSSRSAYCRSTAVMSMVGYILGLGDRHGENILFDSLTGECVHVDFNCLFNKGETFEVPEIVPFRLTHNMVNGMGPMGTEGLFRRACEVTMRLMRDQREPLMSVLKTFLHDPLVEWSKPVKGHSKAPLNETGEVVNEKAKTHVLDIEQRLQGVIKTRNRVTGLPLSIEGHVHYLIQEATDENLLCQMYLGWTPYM

In general, Ki refers to a dissociation constant, usually derived from enzyme kinetics or from competition with a known ligand. As to `NC(=O)C1CCN(C(=O)c2ccc(-c3cnc(N)c(C(=O)Nc4ccccc4)n3)cc2)CC1` [Compound I-77, 3-amino-6-(4-(4-carbamoylpiperidine-1-carbonyl)phenyl)-N-phenylpyrazine-2-carboxamide], the Ki was 10 to 100 nM.
As for `CC(C)S(=O)(=O)c1ccc(-c2cnc(N)c(-c3nnc(CCN)o3)n2)cc1` [IA-214, 3-[5-(2-aminoethyl)-1,3,4-oxadiazol-2-yl]-5-(4-isopropylsulfonylphenyl)pyrazin-2-amine], the Ki fell in the range of 10 to 100 nM.
Consider `CC(C)S(=O)(=O)c1ccc(-c2cnc(N)c(-c3nnc(-c4ccc(CN(C)C)cc4)o3)n2)cc1` [IA-243, 3-[5-[4-(dimethylaminomethyl)phenyl]-1,3,4-oxadiazol-2-yl]-5-(4-isopropylsulfonylphenyl)pyrazin-2-amine], for which the Ki is no more than 10 nM.
On to `Nc1ncc(-c2cccc(CO)c2)nc1-c1nnc(-c2ccccc2)o1` [IA-202, [3-[5-amino-6-(5-phenyl-1,3,4-oxadiazol-2-yl)pyrazin-2-yl]phenyl]methanol], for which the Ki lay within 100 to 5000 nM.
As for `CS(=O)(=O)Nc1ccc(-c2cnc(N)c(C(=O)Nc3ccccc3)n2)cc1` [Compound I-5, 3-amino-6-(4-(methylsulfonamido)phenyl)-N-phenylpyrazine-2-carboxamide], the Ki is 10 to 100 nM.
With `N#Cc1cccc(-c2cnc(N)c(C(=O)Nc3ccccc3)n2)c1` [Compound I-10, 3-amino-6-(3-cyanophenyl)-N-phenylpyrazine-2-carboxamide], the Ki was 100 to 5000 nM.
Consider `Nc1ncc(-c2cccc(C(=O)N3CCCC3)c2)nc1C(=O)Nc1ccccc1` [Compound I-63, 3-amino-N-phenyl-6-(3-(pyrrolidine-1-carbonyl)phenyl)pyrazine-2-carboxamide], for which the Ki was 100 to 5000 nM.
For `CC(N)c1cccc(-c2nnc(-c3nc(-c4ccc(S(=O)(=O)C(C)C)cc4)cnc3N)o2)c1` (stereo not drawn) [IA-282, 3-[5-[3-(1-aminoethyl)phenyl]-1,3,4-oxadiazol-2-yl]-5-(4-isopropylsulfonylphenyl)pyrazin-2-amine], the Ki is no more than 10 nM.
Then `CC(C)NCc1ccc(-c2nnc(-c3nc(-c4ccc(S(=O)(=O)C(C)C)cc4)cnc3N)o2)s1` [IA-248, 3-[5-[5-[(isopropylamino)methyl]-2-thienyl]-1,3,4-oxadiazol-2-yl]-5-(4-isopropylsulfonylphenyl)pyrazin-2-amine], with no more than 10 nM; and `Nc1cccc(-c2nnc(-c3nc(-c4cccnc4)cnc3N)[nH]2)c1` [Compound I-140, 3-(5-(3-aminophenyl)-4H-1,2,4-triazol-3-yl)-5-(pyridin-3-yl)pyrazin-2-amine], with 10 to 100 nM.
The same measure for `CNCc1ccc(-c2cc(-c3nc(-c4ccc(S(=O)(=O)C(C)C)cc4)cnc3N)on2)cc1Cl` [IIA-13, 3-[3-[3-chloro-4-(methylaminomethyl)phenyl]isoxazol-5-yl]-5-(4-isopropylsulfonylphenyl)pyrazin-2-amine]: no more than 10 nM; for `CC(C)S(=O)(=O)c1ccc(-c2cnc(N)c(-c3nnc(CCCCN)o3)n2)cc1` [IA-92, 3-[5-(4-aminobutyl)-1,3,4-oxadiazol-2-yl]-5-(4-isopropylsulfonylphenyl) pyrazin-2-amine]: 100 to 5000 nM.
The same measure for `CNCc1ccc(-c2nnc(-c3nc(-c4ccc(S(=O)(=O)N5CCC5)cc4)cnc3N)o2)cc1` [IA-297, 5-[4-(azetidin-1-ylsulfonyl)phenyl]-3-[5-[4-(methylaminomethyl)phenyl]-1,3,4-oxadiazol-2-yl]pyrazin-2-amine]: no more than 10 nM; for `Nc1ncc(-c2ccc(C(=O)N3CCCNCC3)cc2)nc1C(=O)Nc1cc2ccccc2[nH]1` [Compound V-6]: 100 to 5000 nM; for `CN(C)C(=O)c1ccc(-c2cnc(N)c(C(=O)Nc3ccccc3)n2)cc1` [Compound I-24, 3-amino-6-(4-(dimethylcarbamoyl)phenyl)-N-phenylpyrazine-2-carboxamide]: 10 to 100 nM.
